Data published in US12448373B2, “Azetidinyl-acetamides as CXCR7 inhibitors” (CHEMOCENTRYX, INC., priority 2021, dated 2025).
pIC50: −log10 of the molar value.

Target: T1, CXCR7 (Homo sapiens, UniProt P25106)
T1 construct: expressed in transfected cells; host or cells: CHO cells (CHO-CXCR7), transgenes maintained with Hygromycin B and G418
Experiment: CXCR7 β-arrestin recruitment assay in CHO-CXCR7 cells (ProLink/EA β-galactosidase complementation), induced by human SDF-1a
Format: cell-based
Settings: assay buffer, SDF-1a at EC50 concentration
Procedure, shortened: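 CHO cells co-expressing ProLink-tagged CXCR7 and β-arrestin-EA were pre-plated overnight, then given compound and human SDF-1α at its same-day EC50. After 1.5 h at 37 °C, complemented β-galactosidase was read from 0.4 mM 3-carboxyumbelliferyl β-D-galactopyranoside (30 min, 37 °C; ex 360/em 465 nm). IC50 by 3-parameter fit.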

T1 sequence (P25106 whole entry): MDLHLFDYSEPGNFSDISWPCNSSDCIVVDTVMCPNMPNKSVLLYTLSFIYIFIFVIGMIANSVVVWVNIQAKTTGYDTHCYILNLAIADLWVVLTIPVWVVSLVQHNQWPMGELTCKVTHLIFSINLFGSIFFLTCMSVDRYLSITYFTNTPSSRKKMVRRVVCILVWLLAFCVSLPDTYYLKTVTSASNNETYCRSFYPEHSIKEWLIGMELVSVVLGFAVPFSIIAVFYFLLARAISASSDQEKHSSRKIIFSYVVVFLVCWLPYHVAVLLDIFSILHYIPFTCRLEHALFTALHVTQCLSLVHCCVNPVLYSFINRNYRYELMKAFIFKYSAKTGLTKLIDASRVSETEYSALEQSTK

pIC50	SMILES
7.00 to 8.30	CC(C)(NC(=O)CC1(NC(=O)c2cc(-c3ccc(F)cc3F)on2)CN([C@H]2CC[C@](C)(O)CC2)C1)c1ccc(F)cc1 [Example 1.260]
6.00 to 7.00	Cc1ccc(C(C)(C)NC(=O)CC2(NC(=O)c3cc(-c4ccc(F)cc4F)on3)CN([C@H]3CC[C@@](C)(O)CC3)C2)cc1C(F)(F)F [Example 1.261]
6.00 to 7.00	Cc1ccc(C(C)(C)NC(=O)CC2(NC(=O)c3cc(-c4ccc(F)cc4F)on3)CN([C@H]3CC[C@](C)(O)CC3)C2)cc1C(F)(F)F [Example 1.262]
4.70 to 6.00	CC(C)(NC(=O)CC1(NC(=O)c2cc(-c3ccc(F)cc3F)on2)CN(C2CCCCC2)C1)c1ccc(F)cc1F [Example 1.263]
4.70 to 6.00	CC(C)(O)CN1CC(CC(=O)NC(C)(C)c2ccc(F)cc2F)(NC(=O)c2cc(-c3ccc(F)cc3F)on2)C1 [Example 1.264]
> 8.30	COc1ccc(F)cc1C(C)(C)NC(=O)CC1(NC(=O)c2cc(-c3ccc(F)cc3F)on2)CN([C@H]2CC[C@](C)(O)CC2)C1 [Example 1.266]
> 8.30	CC(C)(NC(=O)CC1(NC(=O)c2cc(-c3ccc(F)cc3F)on2)CN([C@H]2CC[C@@](C)(O)CC2)C1)c1ccccc1 [Example 1.267]
> 8.30	CC(C)(NC(=O)CC1(NC(=O)c2cc(-c3ccc(F)cc3F)on2)CN([C@H]2CC[C@](C)(O)CC2)C1)c1ccccc1 [Example 1.268]
7.00 to 8.30	CC(C)(NC(=O)CC1(NC(=O)c2cc(-c3ccc(F)cc3F)on2)CN(C2CCC3(CC2)CC3)C1)c1ccccn1 [Example 1.269]
7.00 to 8.30	CC(C)(NC(=O)CC1(NC(=O)c2cc(-c3ccc(F)cc3F)on2)CN(C2CCCCC2)C1)c1ncccn1 [Example 1.270]
6.00 to 7.00	CC(C)(NC(=O)CC1(NC(=O)c2cc(-c3ccc(F)cc3F)on2)CN(C2CCCCC2)C1)c1cccc(C(F)(F)F)c1 [Example 1.271]
7.00 to 8.30	COc1cccc(C(C)(C)NC(=O)CC2(NC(=O)c3cc(-c4ccc(F)cc4F)on3)CN(C3CCCCC3)C2)n1 [Example 1.272]
7.00 to 8.30	Cn1cc(C(C)(C)NC(=O)CC2(NC(=O)c3cc(-c4ccc(F)cc4F)on3)CN(C3CCCCC3)C2)cn1 [Example 1.273]
> 8.30	CC(C)(NC(=O)CC1(NC(=O)c2cc(-c3ccc(F)cc3F)on2)CN([C@@H]2CCCCC2(C)C)C1)c1ccccn1 [Example 1.274]
> 8.30	CC(C)(NC(=O)CC1(NC(=O)c2cc(-c3ccc(F)cc3F)on2)CN([C@H]2CCCCC2(C)C)C1)c1ccccn1 [Example 1.275]
7.00 to 8.30	CC(C)(NC(=O)CC1(NC(=O)c2cc(-c3ccc(F)cc3F)on2)CN(C2CCCCC2)C1)c1nccs1 [Example 1.276]
> 8.30	CC1(O)CCC(N2CC(CC(=O)NC3(c4ncccn4)CC3)(NC(=O)c3cc(-c4ccc(F)cc4F)on3)C2)CC1 (centres unmarked) [Example 1.277]
4.70 to 6.00	C[C@]1(O)CC[C@@H](N2CC(CC(=O)NCc3c[nH]c4ccccc34)(NC(=O)c3cc(-c4ccc(F)cc4F)on3)C2)CC1 [Example 1.278]
7.00 to 8.30	C[C@]1(O)CC[C@H](N2CC(CC(=O)NCc3c[nH]c4ccccc34)(NC(=O)c3cc(-c4ccc(F)cc4F)on3)C2)CC1 [Example 1.279]
6.00 to 7.00	CN1CCC(N2CC(CC(=O)NC(C)(C)c3ccccn3)(NC(=O)c3cc(-c4ccc(F)cc4F)on3)C2)CC1 [Example 1.280]
7.00 to 8.30	Cc1ccc(C(C)(C)NC(=O)CC2(NC(=O)c3cc(-c4ccc(F)cc4F)on3)CN(C3CCCCC3)C2)cn1 [Example 1.281]
4.70 to 6.00	O=C(CC1(NC(=O)c2cc(-c3ccc(F)cc3F)on2)CN(C2CCCCC2)C1)N[C@@H](C(=O)O)c1ccccc1 [Example 1.282]
4.70 to 6.00	O=C(CC1(NC(=O)c2cc(-c3ccc(F)cc3F)on2)CN(C2CCCCC2)C1)N[C@H](C(=O)O)c1ccccc1 [Example 1.283]
7.00 to 8.30	CC(C)(NC(=O)CC1(NC(=O)c2cc(-c3ccc(F)cc3F)on2)CN(C2CCCCC2)C1)c1ccc(Cl)nc1 [Example 1.284]

The remaining lines, values behind:

SMILES	pIC50
Cc1cccc(C(C)(C)NC(=O)CC2(NC(=O)c3cc(-c4ccc(F)cc4F)on3)CN([C@H]3CC[C@@](C)(O)CC3)C2)n1 [Example 1.225]	> 8.30
Cc1cccc(C(C)(C)NC(=O)CC2(NC(=O)c3cc(-c4ccc(F)cc4F)on3)CN(C3CCC4(CC3)COC4)C2)n1 [Example 1.226]	7.00 to 8.30
CC(C)(NC(=O)CC1(NC(=O)c2cc(-c3ccc(F)cc3F)on2)CN([C@H]2CC[C@@](C)(O)CC2)C1)c1ccccc1F [Example 1.227]	> 8.30
CC(C)(NC(=O)CC1(NC(=O)c2cc(-c3ccc(F)cc3F)on2)CN([C@H]2CC[C@](C)(O)CC2)C1)c1ccccc1F [Example 1.228]	> 8.30
CC(C)(O)CCN1CC(CC(=O)NC(C)(C)c2cccc(F)c2)(NC(=O)c2cc(-c3ccc(F)cc3F)on2)C1 [Example 1.229]	7.00 to 8.30
CC(C)(O)CCN1CC(CC(=O)NC(C)(C)c2ccccn2)(NC(=O)c2cc(-c3ccc(F)cc3F)on2)C1 [Example 1.230]	4.70 to 6.00
CC(C)(O)CN1CC(CC(=O)NC(C)(C)c2ncccn2)(NC(=O)c2cc(-c3ccc(F)cc3F)on2)C1 [Example 1.231]	6.00 to 7.00
CC(C)(NC(=O)CC1(NC(=O)c2cc(-c3ccc(F)cc3F)on2)CN([C@H]2CC[C@@](C)(O)CC2)C1)c1ncccn1 [Example 1.232]	> 8.30
CC(C)(NC(=O)CC1(NC(=O)c2cc(-c3ccc(F)cc3F)on2)CN([C@H]2CC[C@](C)(O)CC2)C1)c1ncccn1 [Example 1.233]	> 8.30
CC(C)(NC(=O)CC1(NC(=O)c2cc(-c3ccc(F)cc3F)on2)CN(C2CCC3(CC2)COC3)C1)c1cccc(F)c1 [Example 1.234]	7.00 to 8.30
CC(C)(NC(=O)CC1(NC(=O)c2cc(-c3ccc(F)cc3F)on2)CN([C@H]2CC[C@@](C)(O)CC2)C1)c1cc(F)ccc1F [Example 1.235]	> 8.30
CC(C)(NC(=O)CC1(NC(=O)c2cc(-c3ccc(F)cc3F)on2)CN([C@H]2CC[C@](C)(O)CC2)C1)c1cc(F)ccc1F [Example 1.236]	> 8.30
Cc1cccc(C(C)(C)NC(=O)CC2(NC(=O)c3cc(-c4ccc(F)cc4F)on3)CN([C@H]3CC[C@](C)(O)CC3)C2)c1 [Example 1.237]	> 8.30
COc1cccc(C(C)(C)NC(=O)CC2(NC(=O)c3cc(-c4ccc(F)cc4F)on3)CN([C@H]3CC[C@@](C)(O)CC3)C2)c1 [Example 1.238]	7.00 to 8.30
COc1cccc(C(C)(C)NC(=O)CC2(NC(=O)c3cc(-c4ccc(F)cc4F)on3)CN([C@H]3CC[C@](C)(O)CC3)C2)c1 [Example 1.239]	7.00 to 8.30
Cc1cccc(C(C)(C)NC(=O)CC2(NC(=O)c3cc(-c4ccc(F)cc4F)on3)CN(CC(C)(C)O)C2)n1 [Example 1.240]	7.00 to 8.30
COc1ccccc1C(C)(C)NC(=O)CC1(NC(=O)c2cc(-c3ccc(F)cc3F)on2)CN(C2CCC(C)(O)CC2)C1 (centres unmarked) [Example 1.241]	> 8.30
Cc1ccc(C(C)(C)NC(=O)CC2(NC(=O)c3cc(-c4ccc(F)cc4F)on3)CN([C@H]3CC[C@@](C)(O)CC3)C2)cc1 [Example 1.242]	6.00 to 7.00

SMILES	pIC50
Cc1ccc(C(C)(C)NC(=O)CC2(NC(=O)c3cc(-c4ccc(F)cc4F)on3)CN([C@H]3CC[C@](C)(O)CC3)C2)cc1 [Example 1.243]	6.00 to 7.00
COc1ccc(C(C)(C)NC(=O)CC2(NC(=O)c3cc(-c4ccc(F)cc4F)on3)CN([C@H]3CC[C@](C)(O)CC3)C2)cc1 [Example 1.244]	4.70 to 6.00
Cc1nc(C(C)(C)NC(=O)CC2(NC(=O)c3cc(-c4ccc(F)cc4F)on3)CN(C3CCC4(CC3)COC4)C2)sc1C [Example 1.245]	6.00 to 7.00
Cc1ccc(C(C)(C)NC(=O)CC2(NC(=O)c3cc(-c4ccc(F)cc4F)on3)CN([C@H]3CC[C@@](C)(O)CC3)C2)c(F)c1 [Example 1.246]	7.00 to 8.30
Cc1ccc(C(C)(C)NC(=O)CC2(NC(=O)c3cc(-c4ccc(F)cc4F)on3)CN([C@H]3CC[C@](C)(O)CC3)C2)c(F)c1 [Example 1.247]	6.00 to 7.00
CC(C)(O)CN1CC(CC(=O)NC(C)(C)c2ccc(F)cc2)(NC(=O)c2cc(-c3ccc(F)cc3F)on2)C1 [Example 1.248]	6.00 to 7.00
CC(C)(NC(=O)CC1(NC(=O)c2cc(-c3ccc(F)cc3F)on2)CN([C@H]2CC[C@@](C)(O)CC2)C1)c1ccc(Cl)cc1 [Example 1.249]	7.00 to 8.30
CC(C)(NC(=O)CC1(NC(=O)c2cc(-c3ccc(F)cc3F)on2)CN([C@H]2CC[C@](C)(O)CC2)C1)c1ccc(Cl)cc1 [Example 1.250]	6.00 to 7.00
CC(C)(O)CN1CC(CC(=O)NC(C)(C)c2cccc(F)c2)(NC(=O)c2cc(-c3ccc(F)cc3F)on2)C1 [Example 1.251]	7.00 to 8.30
CC(C)(NC(=O)CC1(NC(=O)c2cc(-c3ccc(F)cc3F)on2)CN([C@H]2CC[C@@](C)(O)CC2)C1)c1ccc(F)cc1Cl [Example 1.252]	7.00 to 8.30
CC(C)(NC(=O)CC1(NC(=O)c2cc(-c3ccc(F)cc3F)on2)CN([C@H]2CC[C@](C)(O)CC2)C1)c1ccc(F)cc1Cl [Example 1.253]	7.00 to 8.30
CC(C)(NC(=O)CC1(NC(=O)c2cc(-c3ccc(F)cc3F)on2)CN(C2CCC3(CC2)COC3)C1)c1ccc(F)cc1F [Example 1.254]	6.00 to 7.00
CC(C)(O)CN1CC(CC(=O)NC(C)(C)c2ccccn2)(NC(=O)c2cc(-c3ccc(F)cc3F)on2)C1 [Example 1.255]	7.00 to 8.30
CC(C)(NC(=O)CC1(NC(=O)c2cc(-c3ccc(F)cc3F)on2)CN([C@H]2CC[C@@](C)(O)CC2)C1)c1ccc(F)c(F)c1 [Example 1.256]	7.00 to 8.30
CC(C)(NC(=O)CC1(NC(=O)c2cc(-c3ccc(F)cc3F)on2)CN([C@H]2CC[C@](C)(O)CC2)C1)c1ccc(F)c(F)c1 [Example 1.257]	7.00 to 8.30
CC(C)(NC(=O)CC1(NC(=O)c2cc(-c3ccc(F)cc3F)on2)CN([C@H]2CC[C@](C)(O)CC2)C1)c1c(F)cccc1F [Example 1.258]	6.00 to 7.00
CC(C)(NC(=O)CC1(NC(=O)c2cc(-c3ccc(F)cc3F)on2)CN([C@H]2CC[C@@](C)(O)CC2)C1)c1ccc(F)cc1 [Example 1.259]	7.00 to 8.30
